“Also recorded” adds a separate entry of the source.
Key:
HepG2-ΔRaf-1:ER cells [1] = assay: Cell cycle analysis by propidium iodide FACS; assay type: cell-based, human; conditions: 1 μM ICI182,780, 18 h and 36 h
Protocol: The percentage of cells in the G1, S and G2 phases of the cell cycle is given for the control and ICI182,780 treated cells.
Cells (5×10^5) were seeded on 100 mm dishes and 2 days later the medium was replaced with medium containing 1 μM ICI182,780. After 18 h and 36 h, attached cells were trypsinized, centrifuged, washed in phosphate-buffered saline, resuspended in 1 ml phosphate-buffered saline, fixed in 1 ml of cold ethanol for overnight at 4° C., centrifuged again, washed once with saline, and resuspended in 0.1% bovine serum albumin containing 50 μg/ml ribonuclease and 50 μg/ml propidium iodide (Sigma), and then analysed in a fluoroscence-activated cell sorter (FACSORT, Becton Dickinson). Data were analysed using the Cellfit program.

cyclin A = assay: Cyclin A protein expression, immunoblot; assay type: cell-based, human; conditions: 1 μM ICI182,780
Protocol: (§1) Cells were cultured in the absence or presence of 1 μM ICI182,780. Equal amounts of total protein (40 μg) were resolved by SDS-PAGE, transferred to Immobilon P membrane and probed with antibodies specific for cyclin A and p21^Cip.
(§2) Cells were scraped in phosphate-buffered saline (PBS) and centrifuged, and the pellet was resuspended in lysis buffer (50 mM Tris-Cl [pH 7.5], 150 mM NaCl, 10 mM MgCl2, 1 mM dithiothreitol, 10 mM NaF, 0.5 mM Na3VO4, 0.5% Nonidet P-40, 10 μg of aprotinin/ml, and 100 μg of phenylmethylsulfonyl fluoride per ml). Protein concentration was measured by the Bio-Rad protein assay. Protein (30 to 50 μg) was resolved by sodium dodecyl sulfate-polyacrylamide gel electrophoresis (SDS-PAGE) and transferred onto Immobilon P membranes (Millipore). The filter was blocked in 2.5% skim milk with 0.1% Tween 20 in PBS for 2 h followed by incubation with the specific antibody. The following antibodies were used: polyclonal rabbit antibodies against phosphorylation-independent p42/44^MAPK, phospho-specific-p42/44^MAPK, and phospho-specific or phosphorylation-independent Raf-1 kinase. Reactive proteins were detected with horseradish peroxidase-conjugated secondary antibodies and visualized with an ebb enhanced chemiluminescence detection kit (Amersham Pharmacia Biotech).

HepG2-ΔRaf-1:ER cells [2] = assay: Growth curves of HepG2-ΔRaf-1:ER cells (cell counting); assay type: cell-based, human; conditions: 1 μM ICI182,780
Protocol: (§3) Log-phase cells were seeded at 10^5 cells per 60 mm dish. After 36 h the medium was changed to medium containing either 1 μM ICI182,780 or no ICI182,780. At the indicated times, cells were trypsinized and counted.

HepG2-ΔRaf-1:ER cells [3] = assay: Light microscopic examination of cell morphology; assay type: cell-based; conditions: 1 μM ICI182,780, 24 h
Protocol: Cells treated with 1 μM of the ICI182,780 for 24 h were examined by optical microscopy. […] Representative photomicrographs of HepG2-ΔRaf-1:ER cells either untreated or treated with ICI182,780 were taken at low and high cell density regions of the cultured plate by using microscope.
The phenotype seen in ICI182,780-treated cells may resemble the situation of terminal differentiation, in which cells (for example, neurons) show differentiation in the absence of DNA replication.

p21^Cip1 = assay: p21Cip protein expression, immunoblot; assay type: cell-based, human
Protocol: as §1, §2

p42/44^MAPK = assay: p42/44MAPK phosphorylation, immunoblot with phospho-specific antibody in HepG2-ΔRaf-1:ER cells; assay type: cell-based, human
Protocol: HepG2 cells were treated with indicated doses of ICI182,780 for 4 hours. Phospho-specific p42/44^MAPK antibody was used to monitor p42/44^MAPK phosphorylation/activation, and phosphorylation-independent p42/44^MAPK antibody was used to measure total p42/44^MAPK protein.
as §2

HepG2-ΔRaf-1:ER cells [4] = assay: DNA synthesis, [3H]thymidine incorporation; assay type: cell-based, human; conditions: ICI182,780 0 to 1 μM for 18 h or 1 μM over time
Protocol: Cells in a 24-well dishes were either treated with different ICI182,780 concentrations from 0 to 1 μM for 18 h (top panel) or with 1 μM of ICI182,780 for time periods as indicated in the abscissa of the graph (bottom panel). DNA synthesis was measured by the incorporation of [^3H]thymidine during the final 4 h. Each point represents the mean of three determinations and is representative of at least two independent experiments.
Proliferation was measured with the [^3H]thymidine uptake assay (Amersham), with [^3H]thymidine (1.0 μCi/ml) present in the medium for 4 h prior to harvesting.

HepG2 cells = assay: Growth curves of HepG2 cells (cell counting); assay type: cell-based, human; conditions: 1 μM ICI182,780
Protocol: as §3

[5] = system: human LDL receptor promoter; assay: LDL receptor promoter-luciferase reporter (construct A) in HepG2-ΔRaf-1:ER cells; assay type: cell-based; conditions: for transcriptional (activating) effect of ICI182,780 on the human LDL receptor promoter in presence of inhibitor: 1 μM ICI182,780, PD98059 50 μM, staurosporine 1 μM, curcumin 20 μM
Protocol: HepG2-ΔRaf-1:ER cells were cotransfected with LDL receptor promoter-luciferase reporter (plasmid A) and β-galactosidase-reporter. After 24 hours, cells were grown in a medium containing 0.2% serum for 12 h, followed by addition of 1 μM ICI182,780 for the last 24 h in the absence or presence of indicated inhibitor. […] Sterols (2 μg/ml 25-hydroxycholesterol and 10 μg/ml cholesterol) were added to examine sensitivity to sterols. After the treatment both luciferase and β-galactosidase activities were measured according to the method previously described (24). The results are presented as means ±S.E. and represent at least three individual experiments.
A human low density lipoprotein receptor promoter-luciferase construct A (24) was used to determine the response of the low density lipoprotein receptor promoter to activation of the p42/44^MAPK pathway. HepG2-ΔRaf-1:ER cells were transfected with 0.6 μg of reporter plasmid and 0.25 μg of SV-βGal plasmid by lipofectamine technique, as described previously (Mehta et al., 1996). Cells were washed after 12 h, and after another 12 h the cells were treated with 1 μM ICI182,780 for 36 h, and the controls were treated with ethanol. PBS-washed cells were harvested in 250 mM Tris-Cl, pH 7.5, and lysed in the lysis buffer. The luciferase activities of the cell lysates were measured according to the manufacture's recommendations (Promega). Luciferase assays were carried out in triplicate. In FIG. 6, the data are shown as means of three experiments and the fold induction represents the difference between the means of the samples with ICI182,780 and that of the control. Luciferase activity was normalized for β-galactosidase activity.
To study the role of serine/threonine protein kinases in the activation of the LDL receptor promoter by p42/44^MAPK, HepG2 cells were transiently transfected with construct A. Sixteen hours after transfection, the cells were treated for 1 h with the indicated inhibitor, and then with ICI182,780 in the continued presence of inhibitor.
Because the primary effect of p42/44^MAPK activation is exerted at the transcriptional levels, it was next determined whether ICI182,780 treatment modulated activity of the low density lipoprotein receptor promoter. A low density lipoprotein receptor promoter/luciferase reporter construct A (Mehta et al., 1996), containing promoter sequences from −273 to +35, was transfected into HepG2-ΔRaf-1:ER cells. Both sets of transfected cells were exposed to ICI182,780 for 36 h, after which luciferase activity was determined.

HepG2-ΔRaf-1:ER cells [6] = assay: Colony staining (colony formation); assay type: cell-based, human; conditions: maintained with ICI182,780; results not shown
Protocol: Cells were seeded at a density of 10,000 cells per 60 mm dish and maintained with or without ICI182,780 for varying periods. Colonies were stained by addition of 0.5 ml methylene blue solution for 30 min followed by washing.

LDL receptor = LDL receptor mRNA expression, Northern blot in HepG2-ΔRaf-1:ER cells; assay type: cell-based, human
Protocol: Northern blotting was done under identical conditions to measure RNA levels of LDL receptor, SS, and actin genes.
Total RNA was analyzed by Northern blot for measuring LDL receptor mRNA levels.
LDL receptor and SS mRNA levels were determined by Northern blotting. Results shown are indicative of two separate experiments.
Cells either untreated or pretreated with different concentrations of sterols (1, 2 or 5 μg/ml 25-hydroxycholesterol and 10 μg/ml cholesterol) were induced with ICI182,780 (1 μM) for 4 h. Total RNA was subjected to Northern blotting to determine mRNA levels of LDL receptor and squalene synthase.
Total RNA was isolated by the TRIzol reagent (GIBCO-BRL), according to the manufacturer's protocol. RNA was stored under ethanol. Aliquots containing 20 μg RNA were electrophoresed through a 1%-agarose-formaldehyde gel and transferred to a nylon membrane (BioRad) followed by hybridization. Hybridization probes for LDL receptor, actin, and SS, labeled with ^32P, were prepared using the M13 universal primer. Hybridizations were performed at 45° C., and after final washing at 55° C. for 30 min, filters were exposed to Kodak x-ray film. The relative intensities of specific bands were determined densitometrically within the linear range of film on a model 300A laser densitometer (Molecular Dyanamics) using Image Quant software.

Raf-1 kinase = Raf-1 kinase phosphorylation, immunoblot in HepG2-ΔRaf-1:ER cells; assay type: cell-based, human; conditions: 30 min pretreatment, then 1 μM ICI182,780
Protocol: Total cell extracts were subjected to immunoblotting using the phosphorylation-independent and phospho-specific Raf-1 kinase antibodies. The same blot was later probed with the phospho-specific p42/44^MAPK antibody.
as §2

[7] = clone B, ICI182,780 0 to 1 μM, 4 hours
[8] = 30 min pretreatment, then 1 μM ICI182,780

In the case of `C[C@]12CC[C@@H]3c4ccc(O)cc4C[C@@H](CCCCCCCCC[S+]([O-])CCCC(F)(F)C(F)(F)F)[C@H]3[C@@H]1CC[C@@H]2O` (some centres unmarked) [ICI182,780], the cell cycle distribution (HepG2-ΔRaf-1:ER cells [1]) is reported as “modest increase in the fraction of cells found in the G2/M phase with a concomitant decrease in S phase”, the “cyclin A protein expression” value (cyclin A) is reported as “strong down-regulation” and the “cell growth of HepG2-ΔRaf-1:ER cells” value (HepG2-ΔRaf-1:ER cells [2]) is reported as “arrested the growth”. For the same molecule, the “morphological appearance of treated cells” value (HepG2-ΔRaf-1:ER cells [3]) was “larger with neuronal like structures (i.e. filopodia), and less refractile than untreated cells”, the “signs of cell stress or death” value (HepG2-ΔRaf-1:ER cells [3]) was “no indication that ICI-treated cells were under stress or dying; also recorded: did not exhibit membrane blebbing and/or increase in the number of rounded and/or detached cells” and the “duration of sustained high p21Cip1 levels” value (p21^Cip1; 1 μM ICI182,780) was “at least 24 h”. The p21Cip1 expression (p21^Cip1; 1 μM ICI182,780, between 30 and 120 min of treatment) was “strong increase”, the “time at which p42/44MAPK phosphorylation was clearly detected” value (p42/44^MAPK; 1 μM ICI182,780, 1 to 16 h) was 1 h and the “time of maximal p42/44MAPK phosphorylation response” value (p42/44^MAPK; 1 μM ICI182,780, 1 to 16 h) was 2 h. For the same molecule, the “increase in p42/44MAPK phosphorylation” value (p42/44^MAPK; [7]) was “dependent on ICI182,780 concentration”, the “DNA synthesis ([3H]thymidine incorporation)” value (HepG2-ΔRaf-1:ER cells [4]) was “inhibition of DNA synthesis” and the “cell growth of HepG2 cells” value (HepG2 cells) was “no growth arrest”. The “lowest concentration at which promoter activation was detected” value ([5]; construct A) was 0.5 µM, the “increase of luciferase expression driven by the LDL receptor promoter” value ([5]; construct A (-273 to +35), 1 μM ICI182,780 for 36 h, normalized for β-galactosidase) was 4 to 6 fold and the “luciferase activity, promoterless luciferase vector” value ([5]; transfected cells containing the promoterless luciferase vector, ICI182,780 treatment) was “virtually no change in luciferase activity”. The “ability to form colonies” value (HepG2-ΔRaf-1:ER cells [6]) was “reduced their ability to form colonies”, the “time of maximal induction of LDL receptor expression” value (LDL receptor; 1 μM ICI182,780, 1 to 16 h) was 3 to 4 h and the “increase in LDL receptor expression” value (LDL receptor; [7]) was “dependent on ICI182,780 concentration”.

`COc1cc(C=CC(=O)CC(=O)C=Cc2ccc(O)c(OC)c2)ccc1O` [curcumin, 1,7-bis [4-hydroxy-3-methoxyphenyl]-1,6-heptadiene-3,5-dione] was tested, and the “ICI182,780-dependent p42/44MAPK activation in presence of curcumin” value (p42/44^MAPK; curcumin before 1 μM ICI182,780) was “without affecting”, the “transcriptional (activating) effect of ICI182,780 on the human LDL receptor promoter in presence of inhibitor” value (from here on “transcriptional … of inhibitor”) [5] was “completely suppressed” and the “increase in LDL receptor expression caused by ICI182,780 in presence of curcumin” value (LDL receptor; 60 μM curcumin, endogenous gene) was “totally suppressed”. The “time of treatment at which the blocking effect was complete” value (LDL receptor; curcumin, kinetic studies) was 4 to 6 h.

`COc1cccc(-c2cc(=O)c3ccccc3o2)c1N` [PD98059, 2-(2′-amino-3′-methoxyphenyl)-oxanaphthalene-4-one] was tested, and the “p42/44MAPK phosphorylation and activation after PD98059” value (p42/44^MAPK; 20 μM PD98059 for 30 min before ΔRaf-1:ER activation, data not shown) was “inhibited phosphorylation and activation”, the “transcriptional … of inhibitor” value [5] was “suppressed” and the “p42/44MAPK induced LDL receptor expression after PD98059” value (LDL receptor; PD98059 pretreatment 30 min, then 1 μM ICI182,780) was “significantly inhibited”.

In the case of `CN[C@@H]1C[C@H]2O[C@@](C)([C@@H]1OC)n1c3ccccc3c3c4c(c5c6ccccc6n2c5c31)C(=O)NC4` [staurosporine], the “Raf-1 kinase phosphorylation after staurosporine pretreatment” value (Raf-1 kinase) is reported as “inhibition of phosphorylation”, the “ICI182,780-induced p42/44MAPK phosphorylation after staurosporine pretreatment” value (p42/44^MAPK; [8]) is reported as “inhibition of phosphorylation” and the “transcriptional … of inhibitor” value [5] is reported as “suppressed”. For the same molecule, the “ICI182,780-induced LDL receptor expression after staurosporine pretreatment” value (LDL receptor; [8]) was “loss of LDL receptor induction”.

Source: patent US6756410B2, “Induction of LDL receptor expression by extracellular-signal regulated kinase, ERK-1/2” (priority 2000, dated 2004)
